# Experimental data from US12311056B2, “Composition and method for treatment of neuropsychiatric disorders” (Duke University, priority 2015, dated 2025).
# Experiments:
# 5-HT2C receptors = biological target: T1, 5-HT2C receptors (Homo sapiens, UniProt P28335); conditions: cited from earlier work
# T1 sequence (P28335 33-458): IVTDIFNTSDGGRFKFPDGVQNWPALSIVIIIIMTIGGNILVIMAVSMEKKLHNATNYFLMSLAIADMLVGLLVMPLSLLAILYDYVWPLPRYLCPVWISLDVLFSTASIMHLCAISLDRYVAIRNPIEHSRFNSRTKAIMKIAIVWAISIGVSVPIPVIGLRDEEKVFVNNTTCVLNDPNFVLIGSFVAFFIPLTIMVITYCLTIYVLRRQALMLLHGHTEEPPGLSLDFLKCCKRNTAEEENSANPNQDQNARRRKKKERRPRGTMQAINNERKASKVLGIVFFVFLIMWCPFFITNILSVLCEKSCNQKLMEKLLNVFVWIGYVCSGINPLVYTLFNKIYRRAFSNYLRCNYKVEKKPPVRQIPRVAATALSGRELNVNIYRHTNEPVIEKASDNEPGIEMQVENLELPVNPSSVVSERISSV
# adrenergic α2 receptors = conditions: cited from earlier work
# 5-HT1A receptors = biological target: T2, 5-HT1A receptors (Homo sapiens, UniProt P08908); conditions: cited from earlier work
# T2 sequence (P08908 1-422): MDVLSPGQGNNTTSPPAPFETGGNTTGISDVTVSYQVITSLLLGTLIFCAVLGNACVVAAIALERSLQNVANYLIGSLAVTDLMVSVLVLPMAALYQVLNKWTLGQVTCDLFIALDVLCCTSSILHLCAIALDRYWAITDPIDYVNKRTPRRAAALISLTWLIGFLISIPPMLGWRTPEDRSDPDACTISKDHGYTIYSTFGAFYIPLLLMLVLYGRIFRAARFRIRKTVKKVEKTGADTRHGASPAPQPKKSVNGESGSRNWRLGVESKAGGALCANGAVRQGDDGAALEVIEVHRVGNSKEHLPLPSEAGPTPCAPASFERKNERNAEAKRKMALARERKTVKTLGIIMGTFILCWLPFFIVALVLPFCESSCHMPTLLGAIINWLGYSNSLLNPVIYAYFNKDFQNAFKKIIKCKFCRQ
# histamine H1 receptors = histamine H1 receptors (Homo sapiens, UniProt P35367); conditions: cited from earlier work
# Sequence of histamine H1 receptors (P35367 whole entry): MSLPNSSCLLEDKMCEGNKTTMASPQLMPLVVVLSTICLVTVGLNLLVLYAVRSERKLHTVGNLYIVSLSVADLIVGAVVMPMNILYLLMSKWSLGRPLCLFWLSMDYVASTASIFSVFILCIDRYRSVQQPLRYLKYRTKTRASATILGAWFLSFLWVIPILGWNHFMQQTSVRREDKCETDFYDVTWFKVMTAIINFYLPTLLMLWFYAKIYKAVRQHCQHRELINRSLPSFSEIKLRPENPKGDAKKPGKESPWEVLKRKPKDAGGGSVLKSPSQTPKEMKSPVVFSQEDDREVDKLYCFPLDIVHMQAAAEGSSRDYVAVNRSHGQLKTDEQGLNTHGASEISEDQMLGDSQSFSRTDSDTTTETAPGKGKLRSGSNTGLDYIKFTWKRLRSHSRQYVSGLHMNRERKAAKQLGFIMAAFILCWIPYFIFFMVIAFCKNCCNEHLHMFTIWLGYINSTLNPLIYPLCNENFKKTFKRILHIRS
# 5-HT3 receptors = conditions: cited from earlier work
# 5-HT2A receptors = 5-HT2A receptors (Homo sapiens, UniProt P28223); conditions: cited from earlier work
# Sequence of 5-HT2A receptors (P28223 whole entry): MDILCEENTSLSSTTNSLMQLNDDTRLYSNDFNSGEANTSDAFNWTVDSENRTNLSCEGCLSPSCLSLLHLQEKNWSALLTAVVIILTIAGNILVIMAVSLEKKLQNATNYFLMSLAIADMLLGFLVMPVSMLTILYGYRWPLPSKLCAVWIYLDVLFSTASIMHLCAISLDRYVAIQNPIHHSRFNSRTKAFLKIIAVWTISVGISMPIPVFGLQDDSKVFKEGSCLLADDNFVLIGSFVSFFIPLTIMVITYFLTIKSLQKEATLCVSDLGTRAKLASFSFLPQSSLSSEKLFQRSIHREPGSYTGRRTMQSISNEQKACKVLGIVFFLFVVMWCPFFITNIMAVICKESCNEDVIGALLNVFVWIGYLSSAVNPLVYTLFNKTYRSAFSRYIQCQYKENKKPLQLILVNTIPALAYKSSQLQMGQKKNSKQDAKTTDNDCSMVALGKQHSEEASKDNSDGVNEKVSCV
# rat animal models of LID = assay: Levodopa-induced abnormal involuntary movement (LIAIM) in 6-OHDA-lesioned rat models of LID; assay type: in vivo; conditions: 2 weeks s.c. treatment; challenge with 25 mg/kg levodopa two days after last treatment; compared to L_SS
# Procedure: First, the dopaminergic neurotoxin 6-hydroxydopamine (6-OHDA) was injected into the right medial forebrain bundle of rats to induce unilateral lesions of the nigrostriatal DA pathway. Starting 3 weeks after 6-OHDA lesion, animals were treated twice daily with levodopa methyl ester (25 mg/kg, i.p., bid immediately preceded by 6.5 mg/kg, i.p. benserazide) for 3 weeks to establish LIAIM. Three hour LIAIM scores were quantified twice a week during the levodopa treatment using standard LIAIM rating scales.
# Following LIAIM establishment, animals with combined limb, axial and orolingual LIAIM severity scores>25 were treated with one of the 3 treatment regimens for 2 weeks: (1) pergolide (0.1 mg/kg) followed 3.5 hours later by the 5-HT2A/2C antagonist ketanserin (1 mg/kg) [L_PK group]; (2) pergolide+saline 3.5 hours later [L_PS Group]; and (3) DMSO (1% in saline)+saline 3.5 hours later [L_SS]. All injections were given subcutaneously.
# Two days after the last L_PK, L_PS or L-SS treatment, all animals were challenged with 25 mg/kg levodopa and their LIAIM scores were again quantified.
# [1] = PK analysis of [MPh-IR+Ond-PR2] in the Phase 2A study (24-hour blood PK samples, Day 1 and Day 14)
# Excerpt: Ond-PR2 is a bead formulation prepared from ondansetron as the active pharmaceutical ingredient (API). MPh-IR is an immediate-release generic formulation of methylphenidate. [MPh-IR+Ond-PR2] is a single encapsulated dosage form consisting of MPh-IR and Ond-PR2 as Components 1 and 2, respectively. Following in vitro dissolution testing and PK and safety determinations in normal healthy volunteers (Phase 1 trial), we conducted a proof-of-concept, randomized, double-blind, placebo-controlled Phase 2A safety/efficacy clinical trial. A total of 48 patients residing in a residential program and meeting the DSM-4 criteria for primary psychostimulant abuse were screened, and 30 qualifying subjects were randomized into either [MPh-IR+Ond-PR2] or placebo treatment group.
# Single capsules containing either [MPh-IR+Ond-PR2] or dextrose (placebo) were administered once a day for 14 days. Subjects also underwent single fMRI-based assessments 1-7 days before the first study dosing (pre-treatment) and again between Day 3 and 7 days after the last dosing (i.e., post-treatment assessment was performed after complete drug washout). Outcome measures for group comparisons were behavioral rating scales and blood-oxygenation-level-dependent (BOLD) functional imaging results under well-established resting-state, cue-reactivity and Go/noGO task paradigms.
# On Day 1 and Day 14, 24-four-hour blood PK samples were collected following single oral administrations of a [MPh-IR+Ond-PR2] capsule to: (1) estimate the PK parameters of the two Components (i.e., MPh-IR and Ond-PR2] by quantifying serum methylphenidate and ondansetron concentrations; and (2) determine whether or not any of these parameters change after single daily administrations for 14 days. Descriptive statistics for blood methylphenidate (MPh-IR) and ondansetron (Ond-PR2) concentrations at each time point were summarized as the mean, standard deviation and coefficient of variation. Estimation and statistical analyses of PK parameters were performed with SAS 9.3, and BABE Solution.
# [2] = cited from earlier work
# CYP2D6 = CYP2D6 (Homo sapiens, UniProt P10635); conditions: cited from earlier work
# Sequence of CYP2D6 (P10635 whole entry): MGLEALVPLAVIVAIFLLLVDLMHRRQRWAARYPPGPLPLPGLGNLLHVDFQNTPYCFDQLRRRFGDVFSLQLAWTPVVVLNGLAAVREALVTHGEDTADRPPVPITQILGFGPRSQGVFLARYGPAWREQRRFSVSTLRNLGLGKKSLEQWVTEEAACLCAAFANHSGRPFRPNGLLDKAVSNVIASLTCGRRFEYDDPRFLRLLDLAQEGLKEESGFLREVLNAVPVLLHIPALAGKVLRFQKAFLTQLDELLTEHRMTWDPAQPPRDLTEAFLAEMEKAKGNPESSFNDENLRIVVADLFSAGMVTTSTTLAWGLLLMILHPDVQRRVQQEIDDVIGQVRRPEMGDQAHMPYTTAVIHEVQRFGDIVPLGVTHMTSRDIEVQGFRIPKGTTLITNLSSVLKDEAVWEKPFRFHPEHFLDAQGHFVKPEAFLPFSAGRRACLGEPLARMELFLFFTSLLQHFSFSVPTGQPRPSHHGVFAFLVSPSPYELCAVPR
# [3] = vs R(−) enantiomer of mirtazapine
smiles,measurement,setting,value
"CN1CCN2c3ncccc3Cc3ccccc3C2C1 (racemic) [Mirtazapine, 1,2,3,4,10,14b-hexahydro-2-methylpyrazino[2,1-a]pyrido[2,3-c]benzazepine]",Affinity to 5-HT2C receptors,5-HT2C receptors,high affinities
same,Affinity for adrenergic α2 receptors,adrenergic α2 receptors,high affinities
same,Affinity to 5-HT1A receptors,5-HT1A receptors,minimal affinity
same,Affinity for histamine H1 receptors,histamine H1 receptors,high affinities
same,Affinity for 5-HT3 receptors,5-HT3 receptors,high affinities
same,Affinity to 5-HT2A receptors,5-HT2A receptors,high affinities
"CCCN1C[C@H](CSC)C[C@@H]2c3cccc4[nH]cc(c34)C[C@H]21 [L_P/S, pergolide]",Total LIAIM scores (ratios between post- and pre-reversal treatment scores),rat animal models of LID,No differences
"COC(=O)C(c1ccccc1)C1CCCCN1 (stereo not drawn) [Methylphenidate, methylphenidate]",Cmin (minimum blood concentration before the next administration),"[1]; Day 1, mean",0 ng
same,Kel (elimination rate constant),"[1]; Day 1, mean",0.2 h − 1
same,AUC (0-24),"[1]; Day 14, mean",21.5 ng·h
same,Cmin (minimum blood concentration before the next administration),"[1]; Day 14, mean",0 ng
same,Half life(t1/2),"[1]; Day 14, mean",3.1 h
same,Kel (elimination rate constant),"[1]; Day 14, mean",0.2 h − 1
same,AUC(0-t),"[1]; human, in vivo",21.5 ng·h/mL
same,Cmax,"[1]; human, in vivo",3.4 ng/mL
same,half-life,"[1]; human, in vivo",3.2 h
same,AUC(0-inf),"[1]; human, in vivo, AUC (0-inf), Day 1, mean",21.6 ng·h/mL
same,AUC(0-inf),"[1]; human, in vivo, AUC (0-inf), Day 14, mean",23.4 ng·h/mL
same,Tmax,"[1]; human, in vivo, Tmax, Day 1, mean",1.9 h
same,Tmax,"[1]; human, in vivo, Tmax, Day 14, mean",1.7 h
same,Cmax,"[1]; human, in vivo, po",4 ng/mL
same,"Change in Cmax, Cmin, Tmax, t½, AUC (0-24), AUC (0-inf.) and Kel between Day 1 and Day 14",[1]; once-daily [MPh-IR+Ond-PR2] for 14 days,No significant changes
"Cc1nccn1CC1CCc2c(c3ccccc3n2C)C1=O (stereo not drawn) [Ondansetron, ondansetron]",AUC (0-24),"[1]; human, in vivo",186.4 ng·h
same,AUC(0-inf),"[1]; human, in vivo",226.4 ng·h
same,"Change in Cmax, Cmin, Tmax, t½, AUC (0-24), AUC (0-inf.) and Kel between Day 1 and Day 14","[1]; human, in vivo",No significant changes
same,Cmax,"[1]; human, in vivo",12.6 ng/mL
same,Half life(t1/2),"[1]; human, in vivo",7.2 h
same,Kel (elimination rate constant),"[1]; human, in vivo",0.1 h − 1
same,Tmax,"[1]; human, in vivo",5.8 h
same,AUC(0-t),"[1]; human, in vivo, AUC (0-24)",136 ng·h/mL
same,AUC(0-inf),"[1]; human, in vivo, AUC (0-inf)",179 ng·h/mL
same,half-life,"[1]; human, in vivo, Half life(t1/2)",6.9 h
same,Tmax,"[1]; human, in vivo, Tmax",6.3 h
same,Cmax,"[1]; human, in vivo, po",11.2 ng/mL
CN1CCN2c3ncccc3Cc3ccccc3[C@H]2C1 [esmirtazapine],Affinity for 5-HT2C receptors in comparison with the R(−) enantiomer,5-HT2C receptors; [3],higher affinity
same,Affinity for α2 adrenergic receptors in comparison with the R(−) enantiomer,adrenergic α2 receptors; [3],higher affinity
same,Clearance in poor metabolizers compared to extensive metabolizers,[2]; CYP2D6 phenotype,twice as low
same,Absorption in comparison with the R(−) enantiomer,[2]; enantioselective transport process in the gut wall,may be absorbed faster (but not more extensively)
same,Metabolising enzyme,CYP2D6,predominantly metabolized by CYP2D6
